In US10329303B2, “Heterocyclic inhibitors of monocarboxylate transporter” (THE SCRIPPS RESEARCH INSTITUTE, priority 2015, dated 2019):
Entries after “also recorded” stand apart in the source; their conditions may differ.

Columns and labels:
[1] = Mouse xenograft study, animal body weight; format: in vivo; settings: Raji xenograft mice, 30 mg/kg daily, over the course of the study
Method: (§1) Protocols follow those described in the literature.^4 Mice were transplanted with cultured tumor cells and, after an incubation period (typically 10 days), mice were left untreated or were treated daily with a 30 mg/kg dose of the test compound. Tumor volumes were measured with calipers over ˜20 days of treatment. Tumors were excised and weighed at the end of treatment. In two experiments using Raji Burkitt's lymphoma cells^4, the compounds studied were the product of example 9 (FIG. 3), code named SR-11105, and the product of example 21 (FIG. 4), code named SR-13779.

[2] = tested on: Raji Burkitt's lymphoma cells; experiment: Mouse xenograft study, tumor volume and tumor weight; format: in vivo; settings: Raji xenograft in mice, 30 mg/kg daily; for final tumor mass: tumor mass measured at day 29, relative to vehicle; for tumor growth over time (tumor volume): ~20 days of treatment, relative to vehicle
Method: as §1

[3] = tested on: Raji (Burkitt's) lymphoma cells; experiment: MTT assay for 4-day viability of Raji (Burkitt's) lymphoma cells; format: cell-based; settings: Homo sapiens, 96 h, Raji cells (highly express MCT1), read-out: approximate potency (EC50)
Description: Specific Examples 1-52 of compounds of the invention, with estimated EC50 values determined using an MTT assay for 4-day viability of Raji (Burkitt's) lymphoma cells, a cell line known to highly express MCT1 and to be sensitive to small molecule MCT inhibitors,^4 are shown in Table 2. Assay protocols follow those described in the literature.^4 Other assays that are not described here but that are standard in the field, such as an assay for competitive inhibition of transport of radiolabeled lactic acid, an MCT substrate, may also be useful in establishing mechanism of action of these compounds.

| EC50 [3] [nM] | Compound | other results |
| --- | --- | --- |
| ≤ 20 | Cc1n[nH]c(C)c1Cc1sc2c(c1-c1ccc(F)c(CO)c1)c(=O)n(C)c(=O)n2CC(C)C [Example 9, 6-((3,5-dimethyl-1H-pyrazol-4-yl)methyl)-5-(4-fluoro-3-(hydroxymethyl)phenyl)-1-isobutyl-3-methylthieno[2,3-d]pyrimidine-2,4(1H,3H)-dione] | animal body weight [1]: maintained their body weight; final tumor mass [2]: significant reduction in final tumor mass; tumor growth over time (tumor volume) [2]: significant reduction of tumor growth rate |
| ≤ 20 | Cc1n[nH]c(C)c1Cc1sc2c(c1-c1ccc(F)c(CO)c1F)c(=O)n(C1CC1)c(=O)n2CC(C)C [Example 21, 3-cyclopropyl-5-(2,4-difluoro-3-(hydroxymethyl)phenyl)-6-((3,5-dimethyl-1H-pyrazol-4-yl)methyl)-1-isobutylthieno[2,3-d]pyrimidine-2,4(1H,3H)-dione] | animal body weight [1]: maintained their body weight; final tumor mass ([2]; listed as SR-13779): significant reduction in final tumor mass; also recorded: more pronounced effect; tumor growth over time (tumor volume) [2]: effectively blocked tumor growth |
| < 20 | Cc1n[nH]c(C)c1Cc1sc2c(c1-c1cccc(C(O)C(F)(F)F)c1)c(=O)n(C)c(=O)n2CC(C)C (stereo not shown) [Example 14, 6-((3,5-dimethyl-1H-pyrazol-4-yl)methyl)-1-isobutyl-3-methyl-5-(3-(2,2,2-trifluoro-1-hydroxyethyl)phenyl)thieno[2,3-d]pyrimidine-2,4(1H,3H)-dione] | – |
| 1000 to 10000 | Cc1n[nH]c(C)c1Cc1sc2c(c1-c1c(F)cc(F)c(CO)c1F)c(=O)n(C)c(=O)n2CC(C)C [Example 3, 6-((3,5-dimethyl-1H-pyrazol-4-yl)methyl)-1-isobutyl-3-methyl-5-(2,4,6-trifluoro-3-(hydroxymethyl)phenyl)thieno[2,3-d]pyrimidine-2,4(1H,3H)-dione] | – |
| 80 | CC(C)Cc1nn(C)c(=O)c2c(-c3ccc(F)c(CO)c3F)n(Cc3cccc4ccccc34)cc12 [Example 27, 7-(2,4-difluoro-3-(hydroxymethyl)phenyl)-4-isobutyl-2-methyl-6-(naphthalen-1-ylmethyl)-2,6-dihydro-1H-pyrrolo[3,4-d]pyridazin-1-one] | – |
| 40 | CC(C)Cc1nn(C)c(=O)c2c(-c3cc(CO)ccc3F)n(Cc3cccc4ccccc34)cc12 [Example 28, 7-(2-fluoro-5-(hydroxymethyl)phenyl)-4-isobutyl-2-methyl-6-(naphthalen-1-ylmethyl)-2,6-dihydro-1H-pyrrolo[3,4-d]pyridazin-1-one] | – |
| ≤ 20 | Cc1n[nH]c(C)c1Cc1sc2c(c1-c1cccc(CO)c1F)c(=O)n(C)c(=O)n2CC(C)C [Example 1, 6-((3,5-dimethyl-1H-pyrazol-4-yl)methyl)-5-(2-fluoro-3-(hydroxymethyl)phenyl)-1-isobutyl-3-methylthieno[2,3-d]pyrimidine-2,4(1H,3H)-dione] | – |
| 1000 to 10000 | CC(C)Cc1nn(C)c(=O)c2c(-c3cccc(CO)c3)n(Cc3cnc(Cl)c4ccccc34)cc12 [Example 47, 6-((1-chloroisoquinolin-4-yl)methyl)-7-(3-(hydroxymethyl)phenyl)-4-isobutyl-2-methyl-2,6-dihydro-1H-pyrrolo[3,4-d]pyridazin-1-one] | – |
| ≤ 20 | Cc1n[nH]c(C)c1Cc1sc2c(c1-c1cccc(CO)c1F)c(=O)n(C1CC1)c(=O)n2CC(C)C [Example 20, 3-cyclopropyl-6-((3,5-dimethyl-1H-pyrazol-4-yl)methyl)-5-(2-fluoro-3-(hydroxymethyl)phenyl)-1-isobutylthieno[2,3-d]pyrimidine-2,4(1H,3H)-dione] | – |
| 160 | Cc1n[nH]c(C)c1Cc1sc2c(c1-c1cc(F)c(F)c(CO)c1)c(=O)n(C)c(=O)n2CC(C)C [Example 5, 5-(3,4-difluoro-5-(hydroxymethyl)phenyl)-6-((3,5-dimethyl-1H-pyrazol-4-yl)methyl)-1-isobutyl-3-methylthieno[2,3-d]pyrimidine-2,4(1H,3H)-dione] | – |
